For the experiment, the target named is T1, human HSD17B13 (Homo sapiens, UniProt Q7Z5P4).
T1 sequence (Q7Z5P4 20-300): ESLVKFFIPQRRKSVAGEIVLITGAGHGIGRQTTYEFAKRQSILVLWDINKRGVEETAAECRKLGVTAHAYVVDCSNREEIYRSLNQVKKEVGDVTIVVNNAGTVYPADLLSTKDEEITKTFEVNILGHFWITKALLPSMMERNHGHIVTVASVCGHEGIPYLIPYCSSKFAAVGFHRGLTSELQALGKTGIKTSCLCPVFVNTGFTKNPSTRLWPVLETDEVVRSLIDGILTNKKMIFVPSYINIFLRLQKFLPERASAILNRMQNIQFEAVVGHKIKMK
Nature of the experiment: Substrate screening of steroid and bioactive lipid libraries against purified recombinant HSD17B13 (NADH-linked luciferase assay). The format is biochemical. The conditions noted are these: for HSD17B13 Enzymatic Activity Relative Light Units: 500 μM NAD+, 100 ng enzyme, 3 hours at 23° C.; for HSD17B13 Enzymatic Activity Percent Estradiol Control: normalized to 50 μM estradiol after subtraction of 5% DMSO. In short, it runs like this: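 Substrates (bioactive lipids 5 μM, steroids 50 μM; 5% DMSO) tested with 500 μM NAD+ and 100 ng recombinant human HSD17B13 in 0.2 M Tris-HCl pH 7.5, 3 h, 23° C. Luminescent NADH detection followed 1 h later; RLU normalized to estradiol (50 μM, 100%) and DMSO (0%) controls.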

Where [1] appears, read: Bioactive Lipid Library, 5 μM bioactive lipid (Estradiol Control 50 μM).
[2] abbreviates: Bioactive Lipid Library, 5 μM bioactive lipid.

SMILES strings stand for the structures. Counter-ions that a name gives are not always drawn.

As to `CC/C=C\CC(O)/C=C/C=C\C/C=C\C/C=C\CCCC(=O)O` (racemic) [(±)15-HEPE], the “HSD17B13 Enzymatic Activity Relative Light Units” value under setting [1] came out at 578600 RLU. Also, the “HSD17B13 Enzymatic Activity Percent Estradiol Control” value under setting [2] was 21.70%.
The corresponding values for `CCCCC/C=C\C/C=C\C/C=C\C[C@H]1O[C@H]1CCCC(=O)NCCO` (racemic) [(±)5(6)-EET Ethanolamide] are 450160 RLU and 9.45%.
The like results for `CCCCC[C@H](O)/C=C/C=C\C=C\C=C\[C@H](O)[C@@H](O)CCCC(=O)O` [6(S)-Lipoxin A4] were, in that order, 383000 RLU and 7.90%.
Take `O=P(O)(O)OC1[C@H](O)[C@H](OP(=O)(O)O)C(OP(=O)(O)O)[C@H](OP(=O)(O)O)[C@H]1O` (stereo partly drawn) [D-myo-Inositol-1,3,4,5-tetraphosphate (sodium salt)]: under setting [1], the “HSD17B13 Enzymatic Activity Relative Light Units” value came out at 358920 RLU. The “HSD17B13 Enzymatic Activity Percent Estradiol Control” value under setting [2] turned out to be 2.56%.
The like results for `CC/C=C\C/C=C\C/C=C\C/C=C\C=C\C(O)CCCC(=O)O` (racemic) [(±)5-HEPE] were, in that order, 344480 RLU and 4.85%.
The like results for `CCCCC/C=C\C=C\C(=O)CCCCCCCC(=O)O` [9-OxoODE] were, in that order, 359280 RLU and 5.39%.
For the compound `C[C@]12CCC(=O)C=C1CC[C@@H]1[C@@H]2[C@@H](O)C[C@@]2(C)[C@H]1CC[C@]2(O)C(=O)CO` [Cortisol], where the note is “Steroid Library, 50 μM steroid”, the “HSD17B13 Enzymatic Activity Relative Light Units” value was determined as 40080 RLU and the “HSD17B13 Enzymatic Activity Percent Estradiol Control” value was −2.10%.
As for `CCCCC/C=C\C[C@@H](O)/C=C/C=C/C=C/[C@@H](O)CCCC(=O)O` (relative stereo) [6-trans Leukotriene B4], the “HSD17B13 Enzymatic Activity Relative Light Units” value under setting [1] is listed as 1209480 RLU. Moreover, under setting [2], the “HSD17B13 Enzymatic Activity Percent Estradiol Control” value turned out to be 68.61%.
The corresponding values for `CC(C)OC(=O)CCC/C=C\C[C@@H]1[C@@H](/C=C/[C@H](O)COc2cccc(C(F)(F)F)c2)[C@H](O)C[C@@H]1O` [15(S)-Fluprostenol isopropyl ester] are 410960 RLU and 10.11%.
The like results for `CC1(C)[C@@H]2C[C@H](NS(=O)(=O)c3ccc(I)cc3)[C@@H](C/C=C\CCCC(=O)O)[C@H]1C2` [I-SAP] were, in that order, 245520 RLU and −2.97%.
For `CCCCCC(=O)CC[C@@H]1[C@@H](CC(=O)CCCCC(=O)O)[C@@H](O)C[C@H]1O` [6,15-diketo-13,14-dihydro Prostaglandin F1α], under setting [1], the “HSD17B13 Enzymatic Activity Relative Light Units” value is recorded as 262680 RLU. Further, the “HSD17B13 Enzymatic Activity Percent Estradiol Control” value under setting [2] is given as −1.61%.
The corresponding values for `CC(=O)N[C@@H](CSC(=O)[C@]1([C@@H](O)C(C)C)NC(=O)[C@H](C)[C@@H]1O)C(=O)O` [Lactacystin] are 328520 RLU and 0.26%.
The corresponding values for `CCCCC/C=C\C=C\C(O)CCCCCCCC(=O)O` (racemic) [(±)9-HODE] are 695320 RLU and 30.38%.
As for `CCCCC/C=C\CC(O)C(O)C/C=C\C/C=C\CCCC(=O)O` (racemic) [(±)11(12)-DiHET], under setting [1], the “HSD17B13 Enzymatic Activity Relative Light Units” value was 599000 RLU. In addition, the “HSD17B13 Enzymatic Activity Percent Estradiol Control” value under setting [2] was 20.69%.
The like results for `CCCCC/C=C\C[C@@H]1[C@H](/C=C/C(O)CCCC(=O)O)[C@@H](O)C[C@H]1O` (stereo partly drawn) [5-iPF2α-VI] were, in that order, 293200 RLU and 0.80%.
The like results for `CCCCC[C@H](O)/C=C/[C@@H]1[C@@H](CCCCCCC(=O)O)[C@@H]2C[C@H]1OO2` [Prostaglandin H1] were, in that order, 145840 RLU and −10.85%.

The values above are taken from patent publication US11479802B2, “Assays for screening activity of modulators of members of the hydroxy steroid (17-beta) dehydrogenase (HSD17B) family” (Regeneron Pharmaceuticals, Inc., priority 2017, dated 2022).
